Drawing on ChEMBL document CHEMBL1147758, “4-hydroxyisoleucine an unusual amino acid as antidyslipidemic and antihyperglycemic agent” (2006), this text covers Ratio and Activity for one compound.

Molecules are shown by their SMILES.

Type in all cases: functional, Mesocricetus auratus
Test [1] has as its system Syrian golden hamster. Kind of test: Increase in ratio between HDL-cholesterol and total cholesterol in dyslipidemic male syrian hamsters at 50 mg/kg, po.
For test [2], the system named is Syrian golden hamster. Kind of test: Lowering of plasma triglyceride level in dyslipidemic male syrian hamsters at 50 mg/kg, po.
Test [3] deals with Syrian golden hamster. The experiment in a line: Lowering of glycerol in dyslipidemic male syrian hamsters at 50 mg/kg, po.
The test system of test [4] is Syrian golden hamster. The experiment in a line: Lowering of total cholesterol level in dyslipidemic male syrian hamsters at 50 mg/kg, po.
In test [5] the test system is Syrian golden hamster. The experiment in a line: Lowering of free fatty acids in dyslipidemic male syrian hamsters at 50 mg/kg, po.
Test [6] deals with Syrian golden hamster. The experiment in a line: Increase in HDL-cholesterol in dyslipidemic male syrian hamsters at 50 mg/kg, po.

For `C[C@@H]([C@H](C)O)[C@H](N)C(=O)O`, the Ratio with Syrian golden hamster [1] was found to be 39%. Also, the Activity came to 33% with Syrian golden hamster [2]; 4.9% in the test with Syrian golden hamster [3]; 22% in the test with Syrian golden hamster [4]; 14% with Syrian golden hamster [5]; 8.7% in the test on Syrian golden hamster [6].
